Each block holds one molecule with its values, some of them ahead of it. Calls of active or inactive are those of the source. The calls are words filed in the database; no cut-off is given here.
Experiments:
Trypanosoma cruzi [1] = test: Growth inhibition of Trypanosoma cruzi Tulahuen amastigote forms infected in human THP1 cells after 72 hrs by beta-galactosidase reporter gene assay; type: functional; details: THP-1, 72 h
Trypanosoma cruzi [2] = test: Growth inhibition of Trypanosoma cruzi Tulahuen amastigote forms infected in human THP1 cells at 100 uM after 72 hrs by beta-galactosidase reporter gene assay relative to control; type: functional; details: THP-1, 72 h, read-out: GI
[3] = Selectivity index, ratio of CC50 for human THP1 cells to GI50 for Trypanosoma cruzi Tulahuen amastigote forms infected in human THP1 cells; type: toxicity, cell-based; details: read-out: Selectivity Index
[4] = Cytotoxicity against human THP1 cells after 72 hrs by MTT assay; type: cell-based; details: THP-1 cells
Leishmania amazonensis = test: Growth inhibition of Leishmania amazonensis MHOM/BR/77/LTB0016 amastigote forms expressing beta-galactosidase infected in human THP1 cells at 100 uM by colorimetrc assay relative to control; type: functional
[5] = target: Trypanothione reductase (Trypanosoma cruzi) (UniProt P28593); test: Inhibition of Trypanosoma cruzi Trypanothione reductase expressed in Escherichia coli BL21(DE3) at 100 uM using T(S)2 as substrate incubated for 30 mins measured for 30 mins in presence of NADPH by DTNB reagent based assay relative to control
Sequence of Trypanothione reductase (Trypanosoma cruzi) (P28593 whole entry, looked up): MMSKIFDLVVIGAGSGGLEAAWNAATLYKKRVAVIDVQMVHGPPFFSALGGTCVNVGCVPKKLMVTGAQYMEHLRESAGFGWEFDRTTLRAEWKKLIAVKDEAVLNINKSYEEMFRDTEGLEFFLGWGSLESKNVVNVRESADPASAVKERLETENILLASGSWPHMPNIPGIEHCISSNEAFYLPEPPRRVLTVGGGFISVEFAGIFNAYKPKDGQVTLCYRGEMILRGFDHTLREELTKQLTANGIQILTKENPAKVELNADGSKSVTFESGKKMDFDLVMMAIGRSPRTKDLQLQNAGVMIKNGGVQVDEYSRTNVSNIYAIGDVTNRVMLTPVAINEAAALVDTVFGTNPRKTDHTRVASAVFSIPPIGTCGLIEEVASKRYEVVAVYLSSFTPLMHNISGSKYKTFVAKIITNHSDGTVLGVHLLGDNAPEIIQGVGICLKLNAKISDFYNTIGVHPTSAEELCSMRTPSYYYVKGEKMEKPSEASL

Structure (SMILES): CCCCCc1ccc(-c2cn(Cc3cc(-c4ccc5c(c4)OCO5)no3)nn2)cc1
GI50 (Trypanosoma cruzi [1]): > 100 µM | inhibition of growth at 100 µM (Trypanosoma cruzi [2]): 48.9% | inhibition of growth at 100 µM (Leishmania amazonensis; MHOM/BR/77/LTB0016, THP-1, read-out: GI): 1.7%

Structure (SMILES): COc1ccc(-c2cc(Cn3cc(-c4ccc(OC(F)(F)F)cc4)nn3)on2)cc1
GI50 (Trypanosoma cruzi [1]): > 100 µM | inhibition of growth at 100 µM (Trypanosoma cruzi [2]): 26% | growth inhibition (GI) (Leishmania amazonensis): inactive

Structure (SMILES): Cc1cc(C)c(-c2cn(Cc3cc(-c4ccc5c(c4)OCO5)no3)nn2)cc1C
GI50 (Trypanosoma cruzi [1]): > 100 µM | inhibition of growth at 100 µM (Trypanosoma cruzi [2]): 13.4% | growth inhibition (GI) (Leishmania amazonensis): inactive

Structure (SMILES): COc1ccc(-c2cc(Cn3cc(-c4ccccc4OC)nn3)on2)cc1OC
GI50 (Trypanosoma cruzi [1]): > 100 µM | inhibition of growth at 100 µM (Trypanosoma cruzi [2]): 43.7% | growth inhibition (GI) (Leishmania amazonensis): inactive

Structure (SMILES): COc1ccc(-c2cc(Cn3cc(-c4ccc(C)cc4)nn3)on2)cc1OC
GI50 (Trypanosoma cruzi [1]): > 100 µM | inhibition of growth at 100 µM (Trypanosoma cruzi [2]): 7.6% | growth inhibition (GI) (Leishmania amazonensis): inactive

Structure (SMILES): COc1cc(OC)cc(-c2cn(Cc3cc(-c4ccc(OC)c(OC)c4)no3)nn2)c1
GI50 (Trypanosoma cruzi [1]): 30.3 µM | inhibition of growth at 100 µM (Trypanosoma cruzi [2]): 74.8% | selectivity ratio [3]: > 16.5 | CC50 at 72 h [4]: > 500 µM | growth inhibition (GI) (Leishmania amazonensis): inactive | inhibition [5]: 8.9%

Structure (SMILES): COc1cc(OC)cc(-c2cn(Cc3cc(-c4ccc5c(c4)OCO5)no3)nn2)c1
GI50 (Trypanosoma cruzi [1]): 49.9 µM | inhibition of growth at 100 µM (Trypanosoma cruzi [2]): 87.9% | selectivity ratio [3]: 4.2 | CC50 at 72 h [4]: 208 µM | growth inhibition (GI) (Leishmania amazonensis): inactive | inhibition [5]: 0%

Structure (SMILES): CN(C)CCCN1c2ccccc2CCc2ccc(Cl)cc21 [CLOMIPRAMINE]
GI50 (Trypanosoma cruzi [1]): 14 µM

Structure (SMILES): COc1ccc(-c2cc(Cn3cc(-c4ccc(F)cc4)nn3)on2)cc1OC
GI50 (Trypanosoma cruzi [1]): > 100 µM | inhibition of growth at 100 µM (Trypanosoma cruzi [2]): 32% | growth inhibition (GI) (Leishmania amazonensis): inactive

Structure (SMILES): COc1ccc(-c2cc(Cn3cc(-c4ccc(OC(F)(F)F)cc4)nn3)on2)cc1OC
GI50 (Trypanosoma cruzi [1]): 40.1 µM | inhibition of growth at 100 µM (Trypanosoma cruzi [2]): 78.5% | selectivity ratio [3]: 5.7 | CC50 at 72 h [4]: 227 µM | growth inhibition (GI) (Leishmania amazonensis): inactive | inhibition [5]: 0%

Structure (SMILES): CCCCCc1ccc(-c2cn(Cc3cc(-c4ccc(OC)c(OC)c4)no3)nn2)cc1
GI50 (Trypanosoma cruzi [1]): 12.2 µM | inhibition of growth at 100 µM (Trypanosoma cruzi [2]): 80.2% | selectivity ratio [3]: > 41 | CC50 at 72 h [4]: > 500 µM | growth inhibition (GI) (Leishmania amazonensis): inactive | inhibition [5]: 0%

Structure (SMILES): COc1ccc(-c2cc(Cn3cc(-c4cc(C)c(C)cc4C)nn3)on2)cc1OC
GI50 (Trypanosoma cruzi [1]): 55.2 µM | inhibition of growth at 100 µM (Trypanosoma cruzi [2]): 89.6% | selectivity ratio [3]: > 9 | CC50 at 72 h [4]: > 500 µM | growth inhibition (GI) (Leishmania amazonensis): inactive | inhibition [5]: 9%

Structure (SMILES): COc1ccc(-c2cc(Cn3cc(-c4ccc(N)cc4)nn3)on2)cc1OC
GI50 (Trypanosoma cruzi [1]): > 100 µM | inhibition of growth at 100 µM (Trypanosoma cruzi [2]): 42.8% | growth inhibition (GI) (Leishmania amazonensis): inactive

Continued, in another order:

GI50 (Trypanosoma cruzi [1]): 22.7 µM | inhibition [5]: 9.6%
Structure (SMILES): COc1ccc(-c2cn(Cc3cc(-c4ccc(OC)c(OC)c4)no3)nn2)cc1
inhibition of growth at 100 µM (Trypanosoma cruzi [2]): 81.9% | selectivity ratio [3]: > 22 | CC50 at 72 h [4]: > 500 µM | growth inhibition (GI) (Leishmania amazonensis): inactive

GI50 (Trypanosoma cruzi [1]): > 100 µM
Structure (SMILES): O=[N+]([O-])c1ccc(-c2cn(Cc3cc(-c4ccccc4)no3)nn2)cc1
inhibition of growth at 100 µM (Trypanosoma cruzi [2]): 46.9% | growth inhibition (GI) (Leishmania amazonensis): inactive

GI50 (Trypanosoma cruzi [1]): > 100 µM
Structure (SMILES): COc1ccccc1-c1cn(Cc2cc(-c3ccccc3)no2)nn1
inhibition of growth at 100 µM (Trypanosoma cruzi [2]): 12.4% | growth inhibition (GI) (Leishmania amazonensis): inactive

GI50 (Trypanosoma cruzi [1]): 54.5 µM | inhibition [5]: 0%
Structure (SMILES): COc1cc(OC)cc(-c2cn(Cc3cc(-c4ccccc4)no3)nn2)c1
inhibition of growth at 100 µM (Trypanosoma cruzi [2]): 95.3% | selectivity ratio [3]: 2.6 | CC50 at 72 h [4]: 143 µM | growth inhibition (GI) (Leishmania amazonensis): inactive

GI50 (Trypanosoma cruzi [1]): > 100 µM
Structure (SMILES): COc1ccc(-c2cn(Cc3cc(-c4ccc(OC)cc4)no3)nn2)cc1
inhibition of growth at 100 µM (Trypanosoma cruzi [2]): 43.2% | growth inhibition (GI) (Leishmania amazonensis): inactive

GI50 (Trypanosoma cruzi [1]): > 100 µM
Structure (SMILES): COc1ccc2cc(-c3cn(Cc4cc(-c5ccc(OC)c(OC)c5)no4)nn3)ccc2c1
inhibition of growth at 100 µM (Trypanosoma cruzi [2]): 26.2% | growth inhibition (GI) (Leishmania amazonensis): inactive

GI50 (Trypanosoma cruzi [1]): > 100 µM
Structure (SMILES): COc1ccc2cc(-c3cn(Cc4cc(-c5ccccc5)no4)nn3)ccc2c1
inhibition of growth at 100 µM (Trypanosoma cruzi [2]): 43.1% | growth inhibition (GI) (Leishmania amazonensis): inactive

GI50 (Trypanosoma cruzi [1]): > 100 µM
Structure (SMILES): Cc1ccc(-c2cn(Cc3cc(-c4ccccc4)no3)nn2)cc1
inhibition of growth at 100 µM (Trypanosoma cruzi [2]): 45.2% | growth inhibition (GI) (Leishmania amazonensis): inactive

GI50 (Trypanosoma cruzi [1]): > 100 µM
Structure (SMILES): COc1ccc(-c2cc(Cn3cc(-c4ccccc4)nn3)on2)cc1OC
inhibition of growth at 100 µM (Trypanosoma cruzi [2]): 12.2% | growth inhibition (GI) (Leishmania amazonensis): inactive
